How the values were obtained:
southern crabgrass [1] = experiment: Test Example 5: herbicidal effect by foliage application, plastic box (Table 20, symbol F); assay type: in vivo, southern crabgrass (Digitaria ciliaris); conditions: foliage application, 320 g/ha, 3 weeks after application
How it was run: (§1)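 Sow seeds spot-wise in sterilized diluvial soil; cover with ~1.5 cm soil. Grow 14 days in greenhouse, 25° C. to 30° C. Spray foliage with emulsion diluted to predetermined amount. Rate effect after 3 weeks.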

rapeseed [2] = experiment: Test Example 5: effect on crop by foliage application, plastic box (Table 20, symbol g); assay type: in vivo; conditions: 320 g/ha, 3 weeks after application
Excerpt: (§2) [Test Example 5] Herbicidal Effect Test by Foliage Application
(§3) Sterilized diluvial soil was placed in a plastic box having a length of 21 cm, a width of 13 cm, and a depth of 7 cm. The seeds of each of southern crabgrass, green foxtail, barnyard grass, wild oat, blackgrass, Italian ryegrass, windgrass, velvetleaf, redroot pigweed, lambsquarters, chickweed, false cleavers, persian speedwell, corn, soybean, rice, wheat, beet, and rapeseed were sowed in a spot-like manner and covered with the soil having a thickness of about 1.5 cm. Thereafter, the plants were grown in a greenhouse at 25° C. to 30° C. After 14-day growth of the plants, the emulsion agent of the compound of the present invention prepared according to Formulation Example 2 was diluted with water so as to achieve a predetermined herbicide amount, and the diluted emulsion agent was uniformly applied to a foliage part with a small-sized spray. Three weeks after the herbicide application, the effect of the herbicide on each plant was evaluated according to the criteria of Test Example 1.

wheat = experiment: Test Example 4: effect on crop by soil treatment (Table 19, symbol e); assay type: in vivo; conditions: 320 g/ha
Excerpt: (§4) [Test Example 4] Herbicidal Effect Test by Soil Treatment
as §3, with “Subsequently,” for “Thereafter, the plants were grown in a greenhouse at 25° C. to 30° C. After 14-day growth of the plants,”, “the surface of the soil” for “a foliage part”, “spray. The plastic box was placed in a greenhouse at 25° C. to 30° C. for growth of the plants.” for “spray.”

persian speedwell = experiment: Test Example 4: herbicidal effect by soil treatment (Table 19, symbol R); assay type: in vivo, Persian speedwell (Veronica persica); conditions: 320 g/ha
How it was run: (§5)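 Applied as a water-diluted emulsion, the compound was sprayed onto soil covering newly sown seeds. Evaluation came three weeks after application, in a greenhouse held at 25° C. to 30° C.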

barnyard grass [3] = experiment: Test Example 3: herbicidal effect by foliage application, Wagner pot (Table 18, symbol H); assay type: in vivo, barnyard grass (Echinochloa crus-galli); conditions: 320 g/ha
How it was run: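 Plants were sown in alluvial soil held under 0.1–0.5 cm standing water and grown 14 days in a greenhouse at 25–30 °C. An emulsifiable formulation, water-diluted to the set dose, was then sprayed onto the foliage, and effects were scored three weeks later using previously defined criteria.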

windgrass = experiment: Test Example 4: herbicidal effect by soil treatment (Table 19, symbol L); assay type: in vivo, windgrass (Apera spica-venti); conditions: 320 g/ha
How it was run: as §5

corn = experiment: Test Example 4: effect on crop by soil treatment (Table 19, symbol c); assay type: in vivo; conditions: 320 g/ha
Excerpt: as §4
as §3, with “Subsequently,” for “Thereafter, the plants were grown in a greenhouse at 25° C. to 30° C. After 14-day growth of the plants,”, “the surface of the soil” for “a foliage part”, “spray. The plastic box was placed in a greenhouse at 25° C. to 30° C. for growth of the plants.” for “spray.”

blackgrass = experiment: Test Example 4: herbicidal effect by soil treatment (Table 19, symbol J); assay type: in vivo, blackgrass (Alopecurus myosuroides); conditions: 320 g/ha
How it was run: as §5

southern crabgrass [4] = experiment: Test Example 4: herbicidal effect by soil treatment (Table 19, symbol F); assay type: in vivo, southern crabgrass (Digitaria ciliaris); conditions: 320 g/ha
How it was run: as §5

green foxtail = experiment: Test Example 5: herbicidal effect by foliage application, plastic box (Table 20, symbol G); assay type: in vivo, green foxtail (Setaria viridis); conditions: foliage application, 320 g/ha, 3 weeks after application
How it was run: as §1

rapeseed [5] = experiment: Test Example 4: effect on crop by soil treatment (Table 19, symbol g); assay type: in vivo; conditions: 320 g/ha
Excerpt: as §4
as §3, with “Subsequently,” for “Thereafter, the plants were grown in a greenhouse at 25° C. to 30° C. After 14-day growth of the plants,”, “the surface of the soil” for “a foliage part”, “spray. The plastic box was placed in a greenhouse at 25° C. to 30° C. for growth of the plants.” for “spray.”

soybean [6] = experiment: Test Example 4: effect on crop by soil treatment (Table 19, symbol d); assay type: in vivo; conditions: 320 g/ha
Excerpt: as §4
as §3, with “Subsequently,” for “Thereafter, the plants were grown in a greenhouse at 25° C. to 30° C. After 14-day growth of the plants,”, “the surface of the soil” for “a foliage part”, “spray. The plastic box was placed in a greenhouse at 25° C. to 30° C. for growth of the plants.” for “spray.”

beet = experiment: Test Example 5: effect on crop by foliage application, plastic box (Table 20, symbol f); assay type: in vivo; conditions: 320 g/ha, 3 weeks after application
Excerpt: as §2, §3

wild oat = experiment: Test Example 4: herbicidal effect by soil treatment (Table 19, symbol I); assay type: in vivo, wild oat (Avena fatua); conditions: 320 g/ha
How it was run: as §5

Italian ryegrass = experiment: Test Example 5: herbicidal effect by foliage application, plastic box (Table 20, symbol K); assay type: in vivo, Italian ryegrass (Lolium multiflorum); conditions: foliage application, 320 g/ha, 3 weeks after application
How it was run: as §1

soybean [7] = experiment: Test Example 5: effect on crop by foliage application, plastic box (Table 20, symbol d); assay type: in vivo; conditions: 320 g/ha, 3 weeks after application
Excerpt: as §2, §3

barnyard grass [8] = experiment: Test Example 5: herbicidal effect by foliage application, plastic box (Table 20, symbol H); assay type: in vivo, barnyard grass (Echinochloa crus-galli); conditions: foliage application, 320 g/ha, 3 weeks after application
How it was run: as §1

chickweed = experiment: Test Example 4: herbicidal effect by soil treatment (Table 19, symbol P); assay type: in vivo, common chickweed (Stellaria media); conditions: 320 g/ha
How it was run: as §5

In the case of `Cc1nn(C)c(=O)c(-c2c(-c3ccc(OC(F)F)cc3)sc3ccc(F)cc23)c1O` [Compound No. 2-042, 4-(2-(4-(difluoromethoxy)phenyl)-5-fluorobenzo[b]thiophen-3-yl)-5-hydroxy-2,6-dimethylpyridazin-3(2H)-one], the “effect on southern crabgrass (F)” value (southern crabgrass [1]) is reported as 4 (Herbicidal rate of 70% or more and less than 90%), the melting point is reported as 164 to 165 °C and the “effect on rapeseed (g)” value (rapeseed [2]) is reported as 5 (Herbicidal rate of 90% or more (almost completely withered)). The “effect rating on crop, e: wheat” value (wheat) was 0 (Herbicidal rate of 5% or less (almost no effect)), the “herbicidal effect rating, R: persian speedwell” value (persian speedwell) was 5 (Herbicidal rate of 90% or more (almost completely withered)) and the “herbicidal effect on H (barnyard grass), rating 0-5” value (barnyard grass [3]) was 5 (Herbicidal rate of 90% or more (almost completely withered)). For the same molecule, the “herbicidal effect rating, L: windgrass” value (windgrass) was 3 (Herbicidal rate of 40% or more and less than 70%), the “effect rating on crop, c: corn” value (corn) was 0 (Herbicidal rate of 5% or less (almost no effect)) and the “herbicidal effect rating, J: blackgrass” value (blackgrass) was 3 (Herbicidal rate of 40% or more and less than 70%). For the same molecule, the “herbicidal effect rating, F: southern crabgrass” value (southern crabgrass [4]) was 3 (Herbicidal rate of 40% or more and less than 70%), the “effect on green foxtail (G)” value (green foxtail) was 5 (Herbicidal rate of 90% or more (almost completely withered)) and the “effect rating on crop, g: rapeseed” value (rapeseed [5]) was 5 (Herbicidal rate of 90% or more (almost completely withered)). For the same molecule, the “effect rating on crop, d: soybean” value (soybean [6]) was 0 (Herbicidal rate of 5% or less (almost no effect)), the “effect on beet (f)” value (beet) was 5 (Herbicidal rate of 90% or more (almost completely withered)) and the “herbicidal effect rating, I: wild oat” value (wild oat) was 0 (Herbicidal rate of 5% or less (almost no effect)). The “effect on Italian ryegrass (K)” value (Italian ryegrass) was 5 (Herbicidal rate of 90% or more (almost completely withered)), the “effect on soybean (d)” value (soybean [7]) was 3 (Herbicidal rate of 40% or more and less than 70%) and the “effect on barnyard grass (H)” value (barnyard grass [8]) was 5 (Herbicidal rate of 90% or more (almost completely withered)). For the same molecule, the “herbicidal effect rating, P: chickweed” value (chickweed) was 4 (Herbicidal rate of 70% or more and less than 90%).

From patent US20230085307A1, “PYRIDAZINONE COMPOUND AND HERBICIDE” (NISSAN CHEMICAL CORPORATION, priority 2019, published 2023)
